Measurements: EP1604983A1, “RECEPTOR ANTAGONIST” (Takeda Pharmaceutical Company Limited, priority 2003, dated 2004)
No end group written: not given here.

Key:
[1] = Blood glucose concentration after intravenous administration of RFRP-1 to rat under no anesthesia; type: in vivo, Wistar male rat; details: 10 nmol/kg, 5 minutes and 15 minutes after administration, compared with physiological saline group (Fig. 1)
Protocol: (§1) A value indicates mean ± […] (mean ± SE) (n = 4). • Fig. 4 indicates a ratio of freezing in cued fear conditioning when RFRP-1 (-◆-) and a physiological saline (-○-) are administered in a ventricle. An ordinate axis indicates freezing (%) of one day and two day after administration, respectively, expressed by mean ± standard error.
Blood glucose concentration increasing activity of RFRP
As RFRP, human RFRP-1 (37 amino acids) consisting of an amino acid sequence of 56th (Ser) to 92nd (Phe) of an amino acid sequence represented by SEQ ID No.: 3. Hereinafter, this peptide is abbreviated as RFRP-1.
In order to study influence of peripheral administration of RFRP-1 on a blood glucose concentration, operation for collecting blood under free moving was performed. A mature Wistar male rat (weight 310 to 350 g at operation) was anesthetized with 50 mg/kg of pentobarbital by intraperitoneal administration. The rat was fixed on an anatomic pad in a supine position, and a left jugular vein was exposed. […]
Overnight after operation, 300 µl of blood was collected using a tuberculin injection syringe having a dose of 1 ml and a 25 gauge injection needle (both Telmo) before administration of RFRP-1. […] A blood glucose concentration was measured using Fuji Drichem 3500 (FUJIFILM).

[2] = Cued fear conditioning (freezing) after ventricle administration of RFRP-1; type: in vivo, Wistar male rat; details: rat, 3 nmol into a ventricle, on 2 day (48 hours after training); saline group 46.5% (Fig. 4)
Protocol: as §1
Amnesia promoting activity of RFRP
Since an RFRP nerve is projected on amygdaloid complex, in order to study involvement of RFRP in amygdaloid complex-dependent memory•learning ability, influence under cued fear conditioning due to ventricle administration of RFRP-1 was studied. A mature Wistar male rat (weight 280 to 320 g at operation) was anesthetized with 50 mg/kg of pentobarbital by intraperitoneal administration, and a rat was fixed in a brain localization apparatus. A tooth cutting bar was set lower by 3.3 mm from an interoralline. A cranial bone was exposed, and a hole was opened in a bone using a dental drill in order to embed a guide cannulae AG-12 (internal diameter 0.4 mm, external diameter 0.5 mm, Eicom) in a ventricle. In addition, an anchor screw was embedded in four places at a periphery thereof. A stainless guide cannulae AG-12 was inserted so that its tip was positioned at an upper part of a side ventricle. […]

[3] = Blood glucagon and insulin concentration after intravenous administration of RFRP-1 to rat; type: in vivo, Wistar male rat; details: for blood glucagon concentration: intravenous, compared with physiological saline group (Fig. 2)
Protocol: as §1
Pancreatic glucagon secretion promoting activity of RFRP
In order to study mechanism of blood glucose concentration increasing activity of RFRP-1, influence of RFRP-1 on a blood concentration of glucagon and insulin which are known as a hormone imparting a variation to a blood glucose concentration was studied. A mature Wistar male rat (weight 310 to 350 g at operation) was operated for collecting blood under free moving. Overnight after operation, 300 µl of a blood was collected using a tuberculin injection syringe having a dose of 1 ml and a 25 gauge injection needle (both Telmo) before administration of RFRP-1. In order to prevent blood coagulation, 3 µl of a 300 KIU/ml aprotinin solution containing 3 mg/ml EDTA had been placed into an injection syringe in advance. An Otsuka physiological saline or RFRP-1 dissolved in a physiological saline (80 nmol/mL) was intravenously administered through a tube at 1 mL/Kg. After 1, 3, 5 and 15 minutes from initiation of intravenous administration, each 300 µL of blood was collected from a jugular vein. The collected blood was centrifuged (13,000 rpm, 5 minutes) using a minor amount high speed cooling centrifuge (MR-150, Tommy Seiko), and the supernatant (plasma) was recovered.

human-type OT7T022 = assay: Binding inhibiting activity using human-type OT7T022-expressing CHO cell membrane fraction and 125I-labeled Y-RFRP-3; details: human-type OT7T022-expressing CHO cell membrane fraction 1 µg; 125I-labeled Y-RFRP-3 100 pM; room temperature 1.5 hours; read-out: IC50 value (binding inhibiting rate)
Protocol: Assessment of binding inhibiting activity of test compound using human-type OT7T022-expressing CHO cell
(1) Preparation of iodine-labeled entity of human-type RFRP-3 (Y-RFRP-3)
A part thereof was 1/100 diluted, radioactivity was measured with a γ-counter, and the remaining authentic product was distributed, which was stored at -30°C.
(2) Assessment of binding inhibiting activity
To a 96-well microplate were added 1 µg of a membrane fraction, a compound and Y-RFRP-3 labeled with ^125I, which had been diluted with a reaction buffer (50 mM Tris-HCl, 5 mM EDTA, 0.1% BSA, 0.5 mM PMSF, 20 µg/ml leupeptin, 0.1 µg/ml pepstatin A, 4 µg/ml E-64, 10 mM MgCl2, pH 7.5), to 100pM to react them at room temperature for 1.5 hours. For measuring non-specific binding, non-labeled Y-RFRP-3 was further added to […]. Then, a membrane fraction was transferred to a unifilter GF/C (Perkin Elmer) by filtering the reaction solution using a cell harvester (Perkin Elmer), and this was washed with a cooled 50 mM Tris buffer (pH 7.5) five times. The filter was dried, Microsinti (Packard) was added to the filter, and radioactivity was measured with Topcount (Packard).
A binding inhibiting rate (IC50 value) of a test compound is shown in [Table 1].

Substance	blood glucose concentration [1]	rate of freezing [2]	blood insulin concentration ([3]; intravenous (Fig. 3))	blood glucagon concentration ([3]; 5 minutes after administration)	blood glucagon concentration ([3]; two minutes after administration)	IC50 (human-type OT7T022)
RFRP-1 (MPHSFANLPLRF; not fully specified; ends and bridges not checked; UniProt Q9HCQ7 81-92, looked up)	significant (p<0.05, n = 4) activity of increasing a blood glucose concentration	35.5%	a variation due to administration of RFRP-1 was not recognized	significant (p<0.01) increase was continued	significant (p<0.01) increase in a blood glucagon concentration	
tert-Butyl 7-bromo-4-hydroxy-2-neopentyl-1-oxo-1,2-dihydroisoquinoline-3-carboxylate [Example 10]						< 1000 nM
